Measured values published in US5317095A, “Alpha-D-glycosyl kasugamycin, its preparation, and antibacterial agent containing the same” (Hayashibara Biochemical Laboratories, Inc., priority 1992, dated 1994).
Where two headings read alike, the source gives them in different places.

Columns and labels:
[1] = pH Stability test of α-D-glucosyl kasugamycin; assay type: physicochemical; settings: 120° C. for 1 hour; for remaining at 1 h: buffer, read-out: Residue (%); for remaining at 1 h / Residue (%): mean, n = 5
Procedure: Fifty μl of 2.56 w/v % aqueous solution of α-D-glucosyl kasugamycin (purity: about 80%), which was prepared according to the method described in Example 3 was mixed with 450 μl of a buffer adjusted to pH 2.0, 4.0, 6.0, 8.0 or 10.0. The mixture was kept at 120° C. for 1 hour in a well-closed container. As the buffer was used 1M HCl- Sodium acetate buffer (pH 2.0 or pH 4.0), 1M acetic acid buffer (pH 6.0), 1M Tris-HCl buffer (pH 8.0) or 1M NH4 OH- NH4 Cl buffer (pH 10.0).
Each of thus obtained mixtures was cooled with a running water. Then, the mixture was diluted 5 times with 0.5M Na3 PO4 -H3 PO4 (pH 6.0). Successively, the diluted mixture subjected to HPLC under the following conditions.
As a comparison was used a sample obtained by diluting 5 times a mixture of 50 μl of 2.56 w/v % aqueous solution of α-D-glucosyl kasugamycin and 450 μl of deionized water with 0.5M Na3 PO4 -H3 PO4 (pH 6.0).
Residue was calculated on the basis of a ratio of the peak area of α-D-glucosyl kasugamycin in each treated mixture to that in the sample as a comparison.
Also, 1.0 w/v % aquous solution of kasugamycin purchased from Hokko Kagaku Kogyo Kabushiki Kaisha was treated in the same manner as described in the case of α-D-glucosyl kasugamycin. Residue in each pH condition was calculated.
Column: ODS-M (commercially avairable from Shimazu Techno Research Co., Ltd.)
Eluate: Acetonitrile/Water*=8/92 (v/v) *0.2M CH3 (CH2)5 SO3 Na (pH was not adjusted) 0.005M Na3 PO4 -H3 PO4 (pH 6.0)

[2] = test system: α-glucosidase derived from pig liver; test: Hydrolysis by α-glucosidase derived from pig liver; assay type: in vitro ADME; settings: pig liver enzyme; forms 1 mole of D-glucose per 1 mole of kasugamycin
dd mice = test: Acute toxicity; assay type: in vivo; settings: peritoneally administered; 7 week-old dd mice; highest dose 3,000 mg per kg body weight
Excerpt: The α-D-glucosyl kasugamycin was peritoneally administered to 7 week-old dd mice for acute toxicity test.

[3] = test system: α-glucosidase derived from seeds of rice plant; test: Hydrolysis by α-glucosidase derived from seeds of rice plant; assay type: in vitro ADME; settings: enzyme from seeds of rice plant; forms 1 mole of D-glucose per 1 mole of kasugamycin
[4] = test system: α-glucosidase derived from microorganisms of the genus Mucor; test: Hydrolysis by α-glucosidase derived from microorganisms of the genus Mucor; assay type: in vitro ADME; settings: enzyme from genus Mucor; forms 1 mole of D-glucose per 1 mole of kasugamycin
Solubility in solvents = assay type: physicochemical
[5] = Stability in aqueous solution; assay type: physicochemical; settings: pH in the range from 3.0 to 7.0

## C[C@H]1O[C@H](O[C@H]2[C@H](O)[C@@H](O)[C@@H](O)[C@H](O)[C@@H]2O)[C@@H](N)C[C@@H]1NC(=N)C(=O)O [Kasugamycin, kasugamycin]
[1]; pH 2.0
  remaining at 1 h: 76%
[1]; pH 4.0
  remaining at 1 h: 72.1%
[1]; pH 6.0
  remaining at 1 h: 26.8%
[1]; pH 8.0
  remaining at 1 h: 9.5%
[1]; pH 10.0
  Residue (%): trace

## α-D-glucosyl kasugamycin
[2]
  Hydrolysis by α-glucosidase: readily hydrolyed
Dd mice
  deaths (acute toxicity): not observed any deaths
[1]; pH 2.0
  Residue (%): 76.2%
[1]; pH 4.0
  Residue (%): 75.2%
[1]; pH 6.0
  Residue (%): 26.9%
[1]; pH 8.0, 17.6/9.5
  times stabler than kasugamycin: approximately 1.85 times
[1]; pH 8.0
  Residue (%): 17.6%
[1]; pH 10.0
  Residue (%): trace
[3]
  Hydrolysis by α-glucosidase: readily hydrolyed
[4]
  Hydrolysis by α-glucosidase: readily hydrolyed
Solubility in solvents; 0.1N hydrochloric acid
  Solubility in 0.1N hydrochloric acid: readily soluble
Solubility in solvents; 0.1N sodium hydroxide
  Solubility in 0.1N sodium hydroxide: readily soluble
Solubility in solvents; acetic acid
  Solubility in acetic acid: readily soluble
Solubility in solvents; chloroform
  Solubility in chloroform: insoluble
Solubility in solvents; ethanol
  Solubility in ethanol: substantially insoluble
Solubility in solvents; ethyl acetate
  Solubility in ethyl acetate: insoluble
Solubility in solvents; methanol
  Solubility in methanol: substantially insoluble
Solubility in solvents; water
  Solubility in water: readily soluble
Solubility in solvents; water, room temperature, vs kasugamycin
  solubility in water relative to that of kasugamycin: not less than fivefold
[5]
  Stability in an aqueous solution: excellently stable
